Experimental data from the NIST ThermoML archive (doi:10.1021/je0601208).

Experiments:
[1] = refractive index (Na D-line) (dimensionless); xn = mol fraction of the nth substance listed; details: 100.5 kPa, Liquid, Standard Abbe refractometry
[2] = xn = mol fraction of the nth substance listed

CCOC(=O)Cc1ccccc1 [ethyl phenylacetate] + CCO
Details	refractive index, 288.15 K	refractive index, 298.15 K	refractive index, 308.15 K	refractive index, 318.15 K	surface tension liquid-gas, 288.15 K [mN/m]	surface tension liquid-gas, 298.15 K [mN/m]	surface tension liquid-gas, 308.15 K [mN/m]	surface tension liquid-gas, 318.15 K [mN/m]
[1], x1 = 0.05	1.38109	1.37693	1.37265	1.36852	–	–	–	–
[1], x1 = 0.1	1.39604	1.3918	1.38745	1.38323	–	–	–	–
[1], x1 = 0.15	1.4087	1.40441	1.40003	1.39573	–	–	–	–
[1], x1 = 0.2	1.41969	1.41536	1.41093	1.40653	–	–	–	–
[1], x1 = 0.25	1.42932	1.42491	1.42047	1.41597	–	–	–	–
[1], x1 = 0.3	1.4379	1.43347	1.42899	1.42447	–	–	–	–
[1], x1 = 0.35	1.44556	1.44111	1.43661	1.43203	–	–	–	–
[1], x1 = 0.4	1.45242	1.44792	1.44342	1.43878	–	–	–	–
[1], x1 = 0.45	1.45856	1.45402	1.44951	1.44484	–	–	–	–
[1], x1 = 0.5	1.46406	1.45953	1.455	1.4503	–	–	–	–
[1], x1 = 0.55	1.46909	1.46454	1.45999	1.45524	–	–	–	–
[1], x1 = 0.6	1.47365	1.46908	1.46451	1.45975	–	–	–	–
[1], x1 = 0.65	1.47785	1.47324	1.46869	1.46391	–	–	–	–
[1], x1 = 0.7	1.48174	1.47713	1.47255	1.46775	–	–	–	–
[1], x1 = 0.75	1.48536	1.48072	1.47613	1.47132	–	–	–	–
[1], x1 = 0.8	1.48865	1.48403	1.47943	1.47458	–	–	–	–
[1], x1 = 0.85	1.4917	1.48707	1.48248	1.47763	–	–	–	–
[1], x1 = 0.9	1.49461	1.48996	1.48539	1.48053	–	–	–	–
[1], x1 = 0.95	1.4973	1.49266	1.4881	1.48323	–	–	–	–
[1], x1 = 1	1.49971	1.49513	1.49063	1.48583	–	–	–	–
[2], x1 = 0.05	–	–	–	–	23.9	23.1	22.2	21.2
[2], x1 = 0.1	–	–	–	–	24.6	23.7	22.8	21.8
[2], x1 = 0.15	–	–	–	–	25.2	24.3	23.4	22.4
[2], x1 = 0.2	–	–	–	–	25.9	24.9	23.9	22.9
[2], x1 = 0.25	–	–	–	–	26.5	25.5	24.5	23.5
[2], x1 = 0.3	–	–	–	–	27.2	26.1	25.1	24.1
[2], x1 = 0.35	–	–	–	–	27.8	26.7	25.7	24.7
[2], x1 = 0.4	–	–	–	–	28.4	27.3	26.2	25.4
[2], x1 = 0.45	–	–	–	–	29.1	27.9	26.8	26
[2], x1 = 0.5	–	–	–	–	29.7	28.5	27.4	26.6
[2], x1 = 0.55	–	–	–	–	30.3	29.1	28	27.2
[2], x1 = 0.6	–	–	–	–	31	29.7	28.6	27.8
[2], x1 = 0.65	–	–	–	–	31.6	30.3	29.2	28.4
[2], x1 = 0.7	–	–	–	–	32.2	30.9	29.8	29
[2], x1 = 0.75	–	–	–	–	32.8	31.6	30.4	29.5
[2], x1 = 0.8	–	–	–	–	33.5	32.1	31	30.1
[2], x1 = 0.85	–	–	–	–	34.1	32.8	31.6	30.7
[2], x1 = 0.9	–	–	–	–	34.7	33.4	32.2	31.4
[2], x1 = 0.95	–	–	–	–	35.3	33.9	32.8	32
[2], x1 = 1	–	–	–	–	35.9	34.6	33.5	32.8

CCCCCCCC(=O)OCC [ethyl octanoate] + CCO
Details	refractive index, 288.15 K	refractive index, 298.15 K	refractive index, 308.15 K	refractive index, 318.15 K	surface tension liquid-gas, 288.15 K [mN/m]	surface tension liquid-gas, 298.15 K [mN/m]	surface tension liquid-gas, 308.15 K [mN/m]	surface tension liquid-gas, 318.15 K [mN/m]
[1], x1 = 0.05	1.37185	1.36779	1.36356	1.35953	–	–	–	–
[1], x1 = 0.1	1.37876	1.37462	1.37036	1.36625	–	–	–	–
[1], x1 = 0.15	1.38444	1.38028	1.37601	1.37184	–	–	–	–
[1], x1 = 0.2	1.38922	1.38502	1.38074	1.37654	–	–	–	–
[1], x1 = 0.25	1.39327	1.38905	1.38477	1.38054	–	–	–	–
[1], x1 = 0.3	1.39676	1.39252	1.38823	1.38398	–	–	–	–
[1], x1 = 0.35	1.39979	1.39553	1.39125	1.38698	–	–	–	–
[1], x1 = 0.4	1.40245	1.39818	1.39389	1.38961	–	–	–	–
[1], x1 = 0.45	1.40481	1.40053	1.39624	1.39195	–	–	–	–
[1], x1 = 0.5	1.40692	1.40263	1.39835	1.39403	–	–	–	–
[1], x1 = 0.55	1.40882	1.40451	1.40023	1.39591	–	–	–	–
[1], x1 = 0.6	1.41053	1.40621	1.40193	1.3976	–	–	–	–
[1], x1 = 0.65	1.41208	1.40776	1.40348	1.39914	–	–	–	–
[1], x1 = 0.7	1.4135	1.40917	1.40489	1.40054	–	–	–	–
[1], x1 = 0.75	1.4148	1.41047	1.40619	1.40183	–	–	–	–
[1], x1 = 0.8	1.41599	1.41166	1.40739	1.40302	–	–	–	–
[1], x1 = 0.85	1.41709	1.41276	1.4085	1.40412	–	–	–	–
[1], x1 = 0.9	1.4181	1.41378	1.40952	1.40515	–	–	–	–
[1], x1 = 0.95	1.41904	1.41472	1.41047	1.40611	–	–	–	–
[1], x1 = 1	1.41991	1.4156	1.41137	1.40702	–	–	–	–
[2], x1 = 0.05	–	–	–	–	23.6	22.9	22	21.1
[2], x1 = 0.1	–	–	–	–	24	23.3	22.5	21.6
[2], x1 = 0.15	–	–	–	–	24.4	23.7	22.8	21.9
[2], x1 = 0.2	–	–	–	–	24.8	24	23.2	22.3
[2], x1 = 0.25	–	–	–	–	25.1	24.3	23.4	22.6
[2], x1 = 0.3	–	–	–	–	25.3	24.5	23.7	22.8
[2], x1 = 0.35	–	–	–	–	25.5	24.8	23.9	23
[2], x1 = 0.4	–	–	–	–	25.7	24.9	24.1	23.2
[2], x1 = 0.45	–	–	–	–	25.9	25.1	24.2	23.4
[2], x1 = 0.5	–	–	–	–	26.1	25.3	24.4	23.5
[2], x1 = 0.55	–	–	–	–	26.2	25.4	24.5	23.7
[2], x1 = 0.6	–	–	–	–	26.3	25.6	24.7	23.8
[2], x1 = 0.65	–	–	–	–	26.5	25.7	24.8	24
[2], x1 = 0.7	–	–	–	–	26.6	25.8	24.9	24.1
[2], x1 = 0.75	–	–	–	–	26.7	25.9	25	24.2
[2], x1 = 0.8	–	–	–	–	26.8	26	25.1	24.3
[2], x1 = 0.85	–	–	–	–	26.9	26.1	25.2	24.4
[2], x1 = 0.9	–	–	–	–	27	26.2	25.3	24.5
[2], x1 = 0.95	–	–	–	–	27.1	26.3	25.4	24.6
[2], x1 = 1	–	–	–	–	27.2	26.4	25.5	24.7
